According to US20060188938A1, “Compounds for inhibiting beta-amyloid production and methods of identifying the compounds” (priority 2005, published 2006):
One block for each molecule: values may come before it.

Legend:
[1] = system: β-amyloid production by 7W WT APP751 CHO cells; experiment: Screening of NF-kB activation inhibitors, Aβ1-40 and Aβ1-42 ELISA (Example 3); format: cell-based, Chinese hamster; details: 24 hours (FIG. 6)
Procedure: Most of the compounds screened can be obtained as Calbiochem products from EMD Biosciences, Inc., La Jolla, Calif. R—and S-Niguldipine are available e.g., from Tocris Cookson Inc., Ellisville, Mo. CAPE and Artemisinin are available, e.g., as a Sigma product from Sigma-Aldrich Corp., St. Louis, Mo.
Each compound was dissolved in DMSO. 7W WT APP751 CHO cells overexpressing APP751 were plated into 96-well culture plates in 200 μL of culture medium. Each compound from the library was added to confluent cells to a final concentration of 500 nM, 1 μM, 5 μM, 10 μM and/or 30 μM. After 24 hours of treatment, culture medium was collected and dissolved 10-fold and 2-fold for measuring the level of Aβ1-40 and Aβ1-42, respectively. Aβ1-40 and Aβ1-42 were determined using commercially available ELISAs (Biosource, CA), following the recommendations of the manufacturer.

melting point: 154 to 155 °C
SMILES: CCOC(=O)C1=C(C)NC(C)=C(C(=O)OCC)C1c1ccc(Br)cc1F [Example 43, Diethyl 4-(4-bromo-2-fluorophenyl)-1,4-dihydro-2,6-dimethylpyridine-3,5-dicarboxylate]

melting point: 189.5 to 190.5 °C
SMILES: CC1=C(C(=O)OC(C)(C)C)C(c2cccc(Cl)c2)C(C(=O)OC(C)(C)C)=C(C)N1 [Example 21, Di-tert-butyl 4-(3-chlorophenyl)-1,4-dihydro-2,6-dimethylpyridine-3,5-dicarboxylate]

melting point: 144 to 145 °C
SMILES: CC1=C(C(=O)OC(C)(C)C)C(c2cccc(Cl)c2Cl)C(C(=O)OC(C)(C)C)=C(C)N1 [Example 32, Di-tert-butyl 4-(2,3-dichlorophenyl)-1,4-dihydro-2,6-dimethylpyridine-3,5-dicarboxylate]

melting point: 184 to 185 °C
SMILES: CC1=C(C(=O)OC(C)(C)C)C(c2ccccc2I)C(C(=O)OC(C)(C)C)=C(C)N1 [Example 28, Di-tert-butyl 1,4-dihydro-4-(2-iodophenyl)-2.6-dimethylpyridine-3,5-dicarboxylate]

melting point: 171 to 172 °C
SMILES: CC1=C(C(=O)OC(C)(C)C)C(c2ccc(F)c(Br)c2)C(C(=O)OC(C)(C)C)=C(C)N1 [Example 42, Di-tert-butyl 4-(3-bromo-4-fluorophenyl)-1,4-dihydro-2,6-dimethylpyridine-3,5-dicarboxylate]

melting point: 159 to 161 °C
SMILES: CC1=C(C(=O)OC(C)(C)C)C(c2ccccc2[N+](=O)[O-])C(C(=O)OC(C)(C)C)=C(C)N1 [Example 15, Di-tert-butyl 1,4-dihydro-2,6-dimethyl-4-(2-nitrophenyl)pyridine-3,5-dicarboxylate]

melting point: 178 to 179 °C
SMILES: CC1=C(C(=O)OC(C)(C)C)C(c2cccc(F)c2)C(C(=O)OC(C)(C)C)=C(C)N1 [Example 50, Di-tert-butyl 4-(3-fluorophenyl)-1,4-dihydro-2,6-dimethylpyridine-3,5-dicarboxylate]

melting point: 134.5 to 135.5 °C
SMILES: CCOC(=O)C1=C(C)NC(C)=C(C(=O)OC)C1c1ccccc1Br (centres unmarked) [Example 58, 3-Ethyl 5-methyl 4-(2-bromophenyl)-1,4-dihydro-2,6-dimethylpyridine-3,5-dicarboxylate]

melting point: 137 to 138 °C
SMILES: COCC1=C(C(=O)OC)C(c2ccccc2Cl)C(C(=O)OC)=C(COC)N1 [Example 17, Dimethyl 4-(2-chlorophenyl)-1,4-dihydro-2,6-bis(methoxymethyl)pyridine-3,5-dicarboxylate]

melting point: 134 to 135 °C
SMILES: CCOC(=O)C1=C(C)NC(C)=C(C(=O)OCC)C1c1c(Cl)cccc1Cl [Example 36, Diethyl 4-(2,6-dichlorophenyl)-1,4-dihydro-2,6-dimethylpyridine-3,5-dicarboxylate]

SMILES: C=C1C(=O)O[C@@H]2C[C@@]3(C)CCCC(=C)[C@@H]3C[C@H]12 [isohelenin]
concentration of Aβ1-40 compared to controls ([1]; 5 μM): significantly decreased
concentration of Aβ1-42 compared to controls ([1]; 5 μM): significantly decreased
concentration of total β-amyloid compared to controls ([1]; 5 μM): significantly decreased
concentration of Aβ1-40 compared to controls ([1]; 10 μM): significantly decreased
concentration of Aβ1-42 compared to controls ([1]; 10 μM): significantly decreased
concentration of total β-amyloid compared to controls ([1]; 10 μM): significantly decreased

melting point: 125 to 126 °C
SMILES: CCOC(=O)C1=C(C)NC(C)=C(C(=O)OCC)C1c1cccc(Br)c1 [Example 24, Diethyl 4-(3-bromophenyl)-1,4-dihydro-2,6-dimethylpyridine-3,5-dicarboxylate]

melting point: 162 to 163 °C
SMILES: COCC1=C(C(=O)OC)C(c2ccc(Br)cc2)C(C(=O)OC)=C(COC)N1 [Example 53, Dimethyl 4-(4-bromophenyl)-1,4-dihydro-2,6-bis(methoxymethyl)pyridine-3,5-dicarboxylate]

melting point: 187 to 188 °C
SMILES: CC1=C(C(=O)OC(C)(C)C)C(c2ccc(Br)cc2F)C(C(=O)OC(C)(C)C)=C(C)N1 [Example 44, Di-tert-butyl 4-(4-bromo-2-fluorophenyl)-1,4-dihydro-2,6-dimethylpyridine-3,5-dicarboxylate]

melting point: 162 to 164 °C
SMILES: CC1=C(C(=O)OC(C)(C)C)C(c2ccccc2Br)C(C(=O)OC(C)(C)C)=C(C)N1 [Example 14, Di-tert-butyl 4-(2-bromophenyl)-1,4-dihydro-2,6-dimethylpyridine-3,5-dicarboxylate]

melting point: 183 to 184 °C
SMILES: COC(=O)C1=C(C)NC(C)=C(C(C)=O)C1c1ccccc1Cl (centres unmarked) [Example 57, Methyl 5-acetyl-4-(2-chlorophenyl)-1,4-dihydro-2,6-dimethylpyridine-3-carboxylate]

melting point: 195 to 196 °C
SMILES: CC1=C(C(=O)OC(C)(C)C)C(c2cccc(Br)c2)C(C(=O)OC(C)(C)C)=C(C)N1 [Example 25, Di-tert-butyl 4-(3-bromophenyl)-1,4-dihydro-2,6-dimethylpyridine-3,5-dicarboxylate]

melting point: 151 to 152.5 °C
SMILES: CCOC(=O)C1=C(C)NC(C)=C(C(=O)OCC)C1c1ccccc1F [Example 12, Diethyl 4-(2-fluorophenyl)-1,4-dihydro-2,6-dimethylpyridine-3,5-dicarboxylate]

melting point: 164 to 165 °C
SMILES: COC(=O)C1=C(C)NC(C)=C(C(=O)OC)C1c1ccccc1Br [Example 19, Dimethyl 4-(2-bromophenyl)-1,4-dihydro-2,6-dimethylpyridine-3,5-dicarboxylate]

SMILES: Nc1ccc2ncnc(NCCc3ccc(Oc4ccccc4)cc3)c2c1 [6-amino-4-(4-phenoxyphenylethylamino)quinazoline]
concentration of Aβ1-40 compared to controls ([1]; 500 nM): significantly decreased
concentration of Aβ1-42 compared to controls ([1]; 500 nM): significantly decreased
concentration of total β-amyloid compared to controls ([1]; 500 nM): significantly decreased
concentration of Aβ1-40 compared to controls ([1]; 5 μM): significantly decreased
concentration of Aβ1-42 compared to controls ([1]; 5 μM): significantly decreased
concentration of total β-amyloid compared to controls ([1]; 5 μM): significantly decreased

melting point: 173 to 174.5 °C
SMILES: CCOC(=O)C1=C(C)NC(C)=C(C(=O)OCC)C1c1ccccc1I [Example 18, Diethyl 1,4-dihydro-4-(2-iodophenyl)-2,6-dimethylpyridine-3,5-dicarboxylate]

melting point: 150 to 151 °C
SMILES: CCOC(=O)C1=C(C)NC(C)=C(C(=O)OCC)C1c1ccc(F)cc1 [Example 51, Diethyl 4-(4-fluorophenyl)-1,4-dihydro-2,6-dimethylpyridine-3,5-dicarboxylate]

melting point: 146 to 148 °C
SMILES: COC(=O)C1=C(C)NC(C)=C(C(C)=O)C1c1ccccc1Br (centres unmarked) [Example 59, Methyl 5-acetyl-4-(2-bromophenyl)-1,4-dihydro-2,6-dimethylpyridine-3-carboxylate]

melting point: 161 to 162 °C
SMILES: CCOC(=O)C1=C(C)NC(C)=C(C(=O)OCC)C1c1cccc(F)c1F [Example 38, Diethyl 4-(2,3-difluorophenyl)-1,4-dihydro-2,6-dimethylpyridine-3,5-dicarboxylate]

SMILES: CC1=C(O)C(=O)C=C2C1=CC=C1[C@@]2(C)CC[C@@]2(C)[C@@H]3C[C@](C)(C(=O)O)CC[C@]3(C)CC[C@]12C [celastrol]
concentration of Aβ1-40 compared to controls ([1]; 500 nM): significantly decreased
concentration of Aβ1-42 compared to controls ([1]; 500 nM): significantly decreased
concentration of total β-amyloid compared to controls ([1]; 500 nM): significantly decreased
concentration of Aβ1-40 compared to controls ([1]; 5 μM): significantly decreased
concentration of Aβ1-42 compared to controls ([1]; 5 μM): significantly decreased
concentration of total β-amyloid compared to controls ([1]; 5 μM): significantly decreased

melting point: 125 to 126 °C
SMILES: CCOC(=O)C1=C(C)NC(C)=C(C(=O)OCC)C1c1cccc(Cl)c1Cl [Example 31, Diethyl 4-(2,3-dichlorophenyl)-1,4-dihydro-2,6-dimethylpyridine-3,5-dicarboxylate]

SMILES: NC(=O)Nc1sc(-c2ccc(F)cc2)cc1C(N)=O [IKK-2 Inhibitor IV]
concentration of Aβ1-40 compared to controls ([1]; 500 nM): significantly decreased
concentration of Aβ1-42 compared to controls ([1]; 500 nM): significantly decreased
concentration of total β-amyloid compared to controls ([1]; 500 nM): significantly decreased
concentration of Aβ1-40 compared to controls ([1]; 5 μM): significantly decreased
concentration of Aβ1-42 compared to controls ([1]; 5 μM): significantly decreased
concentration of total β-amyloid compared to controls ([1]; 5 μM): significantly decreased

SMILES: COC(=O)C1=C(C)NC(C)=C(C(=O)OCCCN2CCC(c3ccccc3)(c3ccccc3)CC2)[C@@H]1c1cccc([N+](=O)[O-])c1.Cl [R-niguldipine]
concentration of Aβ1-40 compared to controls ([1]; 1 μM): significantly decreased
concentration of Aβ1-42 compared to controls ([1]; 1 μM): significantly decreased
concentration of total β-amyloid compared to controls ([1]; 1 μM): significantly decreased
concentration of Aβ1-40 compared to controls ([1]; 5 μM): significantly decreased
concentration of Aβ1-42 compared to controls ([1]; 5 μM): significantly decreased
concentration of total β-amyloid compared to controls ([1]; 5 μM): significantly decreased
concentration of Aβ1-40 compared to controls ([1]; 30 μM): significantly decreased
concentration of Aβ1-42 compared to controls ([1]; 30 μM): significantly decreased
concentration of total β-amyloid compared to controls ([1]; 30 μM): significantly decreased

SMILES: COC(=O)C1=C(C)NC(C)=C(C(=O)OCCCN2CCC(c3ccccc3)(c3ccccc3)CC2)[C@H]1c1cccc([N+](=O)[O-])c1.Cl [(S)-(+)-niguldipine]
concentration of Aβ1-40 compared to controls ([1]; 1 μM): significantly decreased
concentration of Aβ1-42 compared to controls ([1]; 1 μM): significantly decreased
concentration of total β-amyloid compared to controls ([1]; 1 μM): significantly decreased
concentration of Aβ1-40 compared to controls ([1]; 5 μM): significantly decreased
concentration of Aβ1-42 compared to controls ([1]; 5 μM): significantly decreased
concentration of total β-amyloid compared to controls ([1]; 5 μM): significantly decreased
concentration of Aβ1-40 compared to controls ([1]; 30 μM): significantly decreased
concentration of Aβ1-42 compared to controls ([1]; 30 μM): significantly decreased
concentration of total β-amyloid compared to controls ([1]; 30 μM): significantly decreased
